Read-outs that look alike come from different tables or passages of the source.
Key:
cRaf-Mek1-Erk2 = cRaf-Mek1-Erk2 (Homo sapiens, UniProt P04049+P28482+Q02750); settings: read-out: IC50 cRaf-Mek-Erk; at 10 μM ATP
Experimental: The inhibitory effect of the inventive compounds was tested on various human serine/threonine kinases and tyrosine kinases in enzymatic assays. Recombinant human kinases, for example Aurora-B, cRaf-Mek1-Erk2, Erk2, Pim-1, HIPK1, KDR, TrkA, Yes, c-Abl and others were used, in some cases as full-length kinases, in some cases as truncated fragments—but at least consisting of the functional kinase domains. The commercial kinase proteins (Proqinase, Millipore) were used as recombinant fusion proteins with GST (glutathione S-transferase) tag or His tag. Depending on the substrate type, the different kinase reactions were quantified by suitable ALPHA™ beads (PerkinElmer).
The calculation of % inhibition values per substance concentration was done by means of the following formula from the raw data determined in the Envision reader:
(§1) The controls were determined 16 fold. 0% controls contained no ATP whereas the 100% controls contained no test substance. The IC50 values were determined with GraphPadPrism.

Aurora-B = biological target: T1, Aurora-B (Homo sapiens, UniProt Q96GD4); assay: Cell-free kinase assay (ALPHA technology), Aurora-B; type: biochemical
T1 construct: in some cases as full-length kinases, in some cases as truncated fragments; purchased Upstate/Millipore #14-835
T1 sequence (Q96GD4 whole entry, the tested form may be a part): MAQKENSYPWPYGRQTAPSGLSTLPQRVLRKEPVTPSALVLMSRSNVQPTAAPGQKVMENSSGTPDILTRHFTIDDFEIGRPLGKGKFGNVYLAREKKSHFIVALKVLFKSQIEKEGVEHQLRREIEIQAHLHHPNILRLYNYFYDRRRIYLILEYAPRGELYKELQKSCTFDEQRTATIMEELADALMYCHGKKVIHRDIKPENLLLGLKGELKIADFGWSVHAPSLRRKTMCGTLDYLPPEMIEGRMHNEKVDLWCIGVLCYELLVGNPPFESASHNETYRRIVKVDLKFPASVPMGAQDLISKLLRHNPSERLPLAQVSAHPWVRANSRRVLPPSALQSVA
Experimental: The kinase reaction was stopped by adding 10 μl of the ALPHA bead mix (10 μg/ml, #6760617/PerkinElmer), pre-incubated with anti-phospho PLK antibody (100 pM, #5070, Cell Signaling), in 25 mM Tris, 200 mM NaCl, 100 mM EDTA and 0.3% BSA, and left to stand overnight. The luminiscence was detected the next morning in a Envision instrument (Perkin Elmer). […] 0% controls contained no ATP whereas the 100% controls contained no test substance. The IC50 values were determined with GraphPadPrism.

Erk2 = biological target: T2, Erk2 (Homo sapiens, UniProt P28482); assay: Cell-free kinase assay (ALPHA technology), Erk2; type: biochemical; settings: for IC50: at 10 μM ATP
T2 construct: in some cases as full-length kinases, in some cases as truncated fragments
T2 sequence (P28482 whole entry, the tested form may be a part): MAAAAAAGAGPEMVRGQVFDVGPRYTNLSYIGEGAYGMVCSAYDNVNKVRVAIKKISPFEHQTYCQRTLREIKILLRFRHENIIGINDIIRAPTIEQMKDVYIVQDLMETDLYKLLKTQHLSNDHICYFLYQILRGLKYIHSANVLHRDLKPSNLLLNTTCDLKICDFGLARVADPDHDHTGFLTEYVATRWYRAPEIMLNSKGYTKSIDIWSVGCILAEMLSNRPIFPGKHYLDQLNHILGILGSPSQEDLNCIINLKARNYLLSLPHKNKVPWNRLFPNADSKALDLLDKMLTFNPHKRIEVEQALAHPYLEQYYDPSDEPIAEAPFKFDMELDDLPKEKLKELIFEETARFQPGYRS
Experimental: as §1

[1] = at 10 μM ATP, read-out: IC50 Aurora-B

cRaf-Mek1-Erk2, sequence (P04049 whole entry, the tested form may be a part): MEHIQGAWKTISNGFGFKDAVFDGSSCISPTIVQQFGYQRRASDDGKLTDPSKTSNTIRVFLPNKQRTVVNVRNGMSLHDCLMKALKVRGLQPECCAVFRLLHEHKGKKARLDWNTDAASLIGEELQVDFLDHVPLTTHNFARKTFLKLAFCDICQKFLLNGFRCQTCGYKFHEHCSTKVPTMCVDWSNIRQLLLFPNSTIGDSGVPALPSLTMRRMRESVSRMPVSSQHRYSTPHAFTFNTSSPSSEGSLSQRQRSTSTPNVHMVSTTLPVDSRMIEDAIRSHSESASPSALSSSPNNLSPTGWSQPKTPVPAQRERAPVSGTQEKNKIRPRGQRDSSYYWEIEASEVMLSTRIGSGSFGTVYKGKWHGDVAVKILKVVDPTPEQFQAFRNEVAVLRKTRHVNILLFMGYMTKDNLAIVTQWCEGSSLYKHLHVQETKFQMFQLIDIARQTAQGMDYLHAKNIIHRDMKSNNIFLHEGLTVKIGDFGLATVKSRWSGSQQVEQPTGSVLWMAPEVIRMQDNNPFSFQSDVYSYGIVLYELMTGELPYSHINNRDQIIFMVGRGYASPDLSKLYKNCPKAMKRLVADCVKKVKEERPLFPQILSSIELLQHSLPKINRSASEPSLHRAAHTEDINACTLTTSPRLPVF
cRaf-Mek1-Erk2, sequence (Q02750 whole entry, the tested form may be a part): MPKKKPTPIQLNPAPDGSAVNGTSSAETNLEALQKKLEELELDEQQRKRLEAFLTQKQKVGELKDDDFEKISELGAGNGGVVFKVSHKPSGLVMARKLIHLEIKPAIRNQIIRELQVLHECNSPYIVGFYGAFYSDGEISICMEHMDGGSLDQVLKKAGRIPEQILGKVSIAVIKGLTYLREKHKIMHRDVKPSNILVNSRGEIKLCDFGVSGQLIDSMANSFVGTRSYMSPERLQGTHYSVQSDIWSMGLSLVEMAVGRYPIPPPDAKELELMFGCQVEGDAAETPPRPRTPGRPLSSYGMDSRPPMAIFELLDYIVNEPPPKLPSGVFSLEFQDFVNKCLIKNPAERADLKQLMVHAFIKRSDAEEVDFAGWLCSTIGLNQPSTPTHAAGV
cRaf-Mek1-Erk2, sequence (P28482 2-360): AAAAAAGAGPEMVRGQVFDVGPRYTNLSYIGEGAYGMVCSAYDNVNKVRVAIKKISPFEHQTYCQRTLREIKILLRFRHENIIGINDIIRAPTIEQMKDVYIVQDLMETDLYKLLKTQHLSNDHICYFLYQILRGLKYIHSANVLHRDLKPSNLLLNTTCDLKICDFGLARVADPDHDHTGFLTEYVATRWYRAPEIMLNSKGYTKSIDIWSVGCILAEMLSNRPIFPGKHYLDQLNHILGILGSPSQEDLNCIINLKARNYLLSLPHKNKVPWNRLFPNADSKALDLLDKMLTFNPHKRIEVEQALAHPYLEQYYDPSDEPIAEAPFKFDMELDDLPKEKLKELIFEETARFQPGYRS

Row | SMILES | IC50 (cRaf-Mek1-Erk2) [µM] | melting point [°C] | IC50 (Aurora-B; [1]) [µM] | IC50 (Erk2) [µM] | IC50 (Aurora-B; read-out: IC50 values against Aurora-B) [µM] | dual activity against Aurora-B and Erk2 (or cRaf-Mek-Erk cascade respectively) (Erk2; in words)
1 | O=C(Nc1ccnc2cc(-c3ccsc3)cnc12)NC1CC1 [Compound 36, 1-Cyclopropyl-3-(7-thiophen-3-yl-[1,5]naphthyridin-4-yl)-urea] | 3.85 | 228 to 229 | 0.103 | > 100 |  | 
2 | Cn1cc(-c2cnc3c(NC(=O)Nc4ccccc4)ccnc3c2)cn1 [Compound 23, 1-[7-(1-Methyl-1H-pyrazol-4-yl)-[1,5]naphthyridin-4-yl]-3-phenyl-urea] | > 100 | 294 to 295 | 1.26 | > 100 |  | 
3 | COc1ccc(-c2cnc3ccc(NC(=O)NC(C)(C)C)nc3c2)cc1OC [Compound 3, 1-tert-Butyl-3-[7-(3,4-dimethoxy-phenyl)-[1,5]naphthyridin-2-yl]-urea] | 1.12 | 279 to 280 | 0.805 | 1.72 |  | dual activity
4 | O=C(Nc1ccnc2cc(-c3ccnc(F)c3)cnc12)NC1CC1 [Compound 37, 1-Cyclopropyl-3-[7-(2-fluoro-pyridin-4-yl)-[1,5]naphthyridin-4-yl]-urea] | 10.3 | 226 to 229 | 0.935 | > 100 |  | 
5 | O=C(Nc1ccnc2cc(-c3ccccc3)cnc12)NC1CC1 [Compound 39, 1-Cyclopropyl-3-(7-phenyl-[1,5]naphthyridin-4-yl)-urea] | 20.3 | 188 to 190 | 0.889 | > 100 |  | 
6 | CC(C)(C)NC(=O)Nc1ccnc2cc(-c3cc(Cl)c(O)c(Cl)c3)cnc12 [Compound 13, 1-tert-Butyl-3-[7-(3,5-dichloro-4-hydroxy-phenyl)-[1,5]naphthyridin-4-yl]-urea] | 11 | > 300 | 0.5 | > 100 |  | 
7 | Cn1cc(-c2cnc3c(NC(=O)NCc4ccccc4)ccnc3c2)cn1 [Compound 31, 1-Benzyl-3-[7-(1-methyl-1H-pyrazol-4-yl)-[1,5]naphthyridin-4-yl]-urea] | > 100 | 237 to 238 | 0.066 | > 100 |  | 
8 | CCNC(=O)Nc1ccnc2cc(-c3cc(Cl)c(O)c(Cl)c3)cnc12 [Compound 15, 1-[7-(3,5-Dichloro-4-hydroxy-phenyl)-[1,5]naphthyridin-4-yl]-3-ethyl-urea] | 7.85 | > 300 | 0.227 | > 31.6 |  | 

The remaining lines, values ahead:

Row | IC50 (cRaf-Mek1-Erk2) [µM] | melting point [°C] | IC50 (Aurora-B; [1]) [µM] | IC50 (Erk2) [µM] | IC50 (Aurora-B; read-out: IC50 values against Aurora-B) [µM] | dual activity against Aurora-B and Erk2 (or cRaf-Mek-Erk cascade respectively) (Erk2; in words) | SMILES
9 | 12.6 | 215 to 216 | 0.112 | > 31.6 |  |  | Cn1cc(-c2cnc3c(NC(=O)NC(C)(C)C)ccnc3c2)cn1 [Compound 11, 1-tert-Butyl-3-[7-(1-methyl-1H-pyrazol-4-yl)-[1,5]naphthyridin-4-yl]-urea]
10 | > 31.6 | 215 to 216 | 0.038 | > 100 | < 0.1 |  | CCNC(=O)Nc1ccnc2cc(-c3cnn(C)c3)cnc12 [Compound 10, 1-Ethyl-3-[7-(1-methyl-1H-pyrazol-4-yl)-[1,5]naphthyridin-4-yl]-urea]
11 | > 100 | 188 to 189 | 0.885 | > 100 |  |  | CCCCCCNC(=O)Nc1ccnc2cc(-c3cnn(C)c3)cnc12 [Compound 25, 1-Hexyl-3-[7-(1-methyl-1H-pyrazol-4-yl)-[1,5]naphthyridin-4-yl]-urea]
12 | 16.6 | 222 to 223 | 0.086 | > 100 |  |  | Cn1cc(-c2cnc3c(NC(=O)NCCc4ccccc4)ccnc3c2)cn1 [Compound 33, 1-[7-(1-Methyl-1H-pyrazol-4-yl)-[1,5]naphthyridin-4-yl]-3-phenethyl-urea]

Source: patent publication US8461178B2, “Naphthyridine derivatives and the use thereof as kinase inhibitors” (Aeterna Zentaris GmbH, priority 2009, dated 2013)
